The target of data set [1] is T1, BIG1 (DCB-HUS-Sec7 construct) (Homo sapiens, UniProt Q9Y6D6).
T1 construct: BIG1^Sec7 (691-889), BIG1^DcbHusSec7 (2-888); made in house
T1 sequence (Q9Y6D6 2-888): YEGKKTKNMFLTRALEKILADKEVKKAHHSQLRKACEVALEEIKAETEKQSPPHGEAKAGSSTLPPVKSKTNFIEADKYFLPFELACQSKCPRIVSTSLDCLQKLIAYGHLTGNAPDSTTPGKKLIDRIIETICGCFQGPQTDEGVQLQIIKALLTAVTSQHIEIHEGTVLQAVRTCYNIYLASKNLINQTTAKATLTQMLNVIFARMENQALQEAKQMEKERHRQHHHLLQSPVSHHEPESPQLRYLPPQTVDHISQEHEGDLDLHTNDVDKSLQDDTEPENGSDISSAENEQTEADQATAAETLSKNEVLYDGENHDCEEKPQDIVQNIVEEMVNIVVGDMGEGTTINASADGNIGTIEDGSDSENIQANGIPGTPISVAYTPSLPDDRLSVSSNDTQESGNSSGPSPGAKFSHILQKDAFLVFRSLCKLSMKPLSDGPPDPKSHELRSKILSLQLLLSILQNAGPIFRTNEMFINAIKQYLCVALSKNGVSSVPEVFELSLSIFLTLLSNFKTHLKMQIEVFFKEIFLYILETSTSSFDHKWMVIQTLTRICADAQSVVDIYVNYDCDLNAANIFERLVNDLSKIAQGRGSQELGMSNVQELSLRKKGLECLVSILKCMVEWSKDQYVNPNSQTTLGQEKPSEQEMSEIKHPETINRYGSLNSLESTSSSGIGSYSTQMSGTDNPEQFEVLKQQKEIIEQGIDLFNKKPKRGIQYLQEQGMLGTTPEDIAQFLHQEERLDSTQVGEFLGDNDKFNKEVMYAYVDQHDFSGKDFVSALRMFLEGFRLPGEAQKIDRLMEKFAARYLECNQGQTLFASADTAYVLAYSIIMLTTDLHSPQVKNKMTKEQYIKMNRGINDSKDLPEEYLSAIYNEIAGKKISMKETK
Put plainly: Nucleotide exchange kinetics on liposomes, activation of myristoylated Arf1. The settings on record: 50 μM. The class given is biochemical.

Data set [2] concerns the target T2, EFA6 (Sec7PHCt construct) (Homo sapiens, UniProt A5PKW4).
T2 construct: human EFA6^Sec7 (527-727) and EFA6^Sec7PHCt (527-1024); made in house
The description is as above. The note with it: 50 μM. The class given is biochemical.

A short description of data set [3]: Stability of DMSO stock solution (1H-NMR). The class given is physicochemical. The note with it: kept in DMSO for several months.

Each structure is given as a SMILES string.

T2 sequence (A5PKW4 527-1024): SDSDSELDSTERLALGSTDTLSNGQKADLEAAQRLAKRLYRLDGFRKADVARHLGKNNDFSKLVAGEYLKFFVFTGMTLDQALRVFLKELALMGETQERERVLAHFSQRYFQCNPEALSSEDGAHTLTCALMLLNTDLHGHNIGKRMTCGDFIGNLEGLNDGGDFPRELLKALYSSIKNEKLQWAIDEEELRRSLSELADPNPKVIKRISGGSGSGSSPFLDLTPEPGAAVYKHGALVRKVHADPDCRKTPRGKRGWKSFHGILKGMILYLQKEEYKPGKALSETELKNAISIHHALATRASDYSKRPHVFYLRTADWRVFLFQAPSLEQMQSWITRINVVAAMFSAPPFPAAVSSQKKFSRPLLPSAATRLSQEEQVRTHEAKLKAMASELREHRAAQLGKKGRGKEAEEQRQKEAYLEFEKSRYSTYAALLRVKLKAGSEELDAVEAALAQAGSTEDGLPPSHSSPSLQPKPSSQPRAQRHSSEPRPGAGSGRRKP

On to `Cc1ccc2oc(C(F)(F)F)cc(=O)c2c1[N+](=O)[O-]` [Bragsin1, 6-methyl-5-nitro-2-(trifluoromethyl)-4H-chromen-4-one], for which the “Effect on ArfGEF activity on liposomes” value in data set [1] and in data set [2] was “no effect” throughout. In data set [3], the “Stability in DMSO stock solution by 1H-NMR” value was “completely decomposed”.

The values above are taken from patent US12152012B2, “BRAG2 inhibitors and applications thereof” (CENTRE NATIONAL DE LA RECHERCHE SCIENTIFIQUE, priority 2018, dated 2024).
